“And” between values parts separate entries of the source, which are not always exact repeats. Equal values may be shown once.
Tested on: Hs578T multi-cell spheroids, viability
Experiment: Anticancer human tumor Hs578T cell line growth inhibition [IpAb];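 also: drug exposure lasted 7 days before readout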
Details: for viability, T/C: stronger effect = lower value; active = viability on the fitted dose curve at most 10% of control; inactive = the rest
Excerpt: Combinatorial screen of targeted agents with ipatasertib and abemaciclib in multi-cell type tumor spheroids
A high-throughput screen of multi-cell type tumor spheroids was designed to identify active combinations of targeted small molecules and ipatasertib or abemaciclib. Complex spheroids include a stromal component modeled by human endothelial cells (HUVEC) and fibroblasts modeled by human mesenchymal stem cells (MSCs). The concentration ranges selected for each drug and investigational agent were based upon clinically achievable concentrations if the clinical Cmax of the agent was known.
Compounds. The drugs and investigational agents: ipatasertib (NSC767898), abemaciclib(NSC768073), selumetinib (NSC741078), trametinib (758246), adavosertib (NSC754352), everolimus (NSC733504), sapanisertib (NSC764658), vemurafenib (NSC761431), venetoclax (NSC766270), copanlisib (NSC809693), apelisib (NSC765974), palbociblib (NSC758247), vemurafenib (NSC761431), dabrafenib (NSC764134), ravoxertinib (NSC781343), BMS-387032 (NSC767048), sotorasib (NSC818433), talazoparib (NSC767125) and afursertib (NSC778305), were obtained from the National Cancer Institute (NCI) Developmental Therapeutics Program Chemical Repository. The FDA-approved anticancer drug set is available from the NCI Developmental Therapeutics Program. […] The stock solutions were prepared in dimethyl sulfoxide (DMSO, Sigma-Aldrich, St. Louis, MO, cat. D2650) at 800-fold the tested concentration and stored at -70 degrees C prior to their use. All drugs and investigational agents were tested over a range starting from a high concentration at or near the clinical Cmax and decreasing in half-log increments. If the clinical Cmax for an agent had not been determined, the highest concentration tested was 10 microM.
NCI60 Cell Culture. NCI60 cell lines were obtained from the NCI Developmental Therapeutics Program Tumor Repository. For each lot of cells, the Repository performed Applied Biosystems AmpFLSTR Identifiler testing with PCR amplification to confirm consistency with the published Identifier STR profile for each cell line. Cells were kept in continuous culture for no more than 20 passages. The optimal seeding densities for each of the cell lines at each time point assessed were determined prior to performing the concentration response studies. Briefly, the NCI60 human tumor lines were grown as monolayers in RPMI 1640 medium supplemented with 10% FBS and 2 mmol/L L-glutamine.
An additional 9 lines were from the NCI60 cell line panel including MDA-MB-231 breast carcinoma, MDA-MB-468 breast carcinoma, MCF7 breast carcinoma, Hs578T breast carcinoma, MALME-3M melanoma, SK-MEL-2 melanoma, SK-OV-3 ovarian carcinoma, DU-145 prostate carcinoma, PC-3 prostate carcinoma, all cell lines along with major genetic alterations are listed on Table 2. Pooled donor human umbilical vein endothelial cells (HUVEC, Lonza, cat. CC-2519) and human mesenchymal stem cells (hMSC, Lonza, cat. PT-2501) were purchased from Lonza (Walkersville, MD).
PDMR cell lines were grown in complete medium (DC medium): Dulbecco's modified Eagle's medium (DMEM)/F12 supplemented with 5% fetal bovine serum (FBS), 2 mM L-glutamine, 100 U/mL penicillin and 100 µg/ml streptomycin, 0.4 µg/ml hydrocortisone, 10 ng/ml epidermal growth factor (EGF) recombinant human protein, 24 µg/mL adenine, and 0.1 mg/mL primocin. During culture from frozen stock vials, PDMR cells were cultured in the same medium containing 10 µM Y-27632 (see Table 3). The PDCs were cultured in complete DMEM/F12 media without 10 microM Y-27632 dihydrochloride for at least two passages prior to the screen. The pooled donor HUVEC and hMSC were cultured in endothelial cell growth medium 2 (PromoCell, Heidelberg, Germany, cat. C-22011) and mesenchymal stem cell growth medium 2 (PromoCell, cat. C-28009), respectively. For all experiments, HUVEC and hMSC were used at passages </=5.
[…]

[1] = curve of first compound, second compound 0.1 µM
[2] = curve of first compound, second compound 0.316 µM
[3] = curve of first compound, second compound 1 µM
[4] = curve of first compound, second compound 3.16 µM
[5] = curve of first compound, second compound 10 µM
[6] = second compound 0.1 µM, first compound 0.0316 µM
[7] = second compound 0.1 µM, first compound 0.1 µM
[8] = second compound 0.1 µM, first compound 0.316 µM
[9] = second compound 0.1 µM, first compound 1 µM
[10] = second compound 0.1 µM, first compound 3.16 µM
[11] = second compound 0.1 µM, first compound 10 µM
[12] = second compound 0.316 µM, first compound 0.0316 µM
[13] = second compound 0.316 µM, first compound 0.1 µM
[14] = second compound 0.316 µM, first compound 0.316 µM
[15] = second compound 0.316 µM, first compound 1 µM
[16] = second compound 0.316 µM, first compound 3.16 µM
[17] = second compound 0.316 µM, first compound 10 µM
[18] = second compound 1 µM, first compound 0.0316 µM
[19] = second compound 1 µM, first compound 0.1 µM
[20] = second compound 1 µM, first compound 0.316 µM
[21] = second compound 1 µM, first compound 1 µM
[22] = second compound 1 µM, first compound 3.16 µM
[23] = second compound 1 µM, first compound 10 µM
[24] = second compound 3.16 µM, first compound 0.0316 µM
[25] = second compound 3.16 µM, first compound 0.1 µM
[26] = second compound 3.16 µM, first compound 0.316 µM
[27] = second compound 3.16 µM, first compound 1 µM
[28] = second compound 3.16 µM, first compound 3.16 µM
[29] = second compound 3.16 µM, first compound 10 µM
[30] = second compound 10 µM, first compound 0.0316 µM
[31] = second compound 10 µM, first compound 0.1 µM
[32] = second compound 10 µM, first compound 0.316 µM
[33] = second compound 10 µM, first compound 1 µM
[34] = second compound 10 µM, first compound 3.16 µM
[35] = second compound 10 µM, first compound 10 µM

C=CCn1c(=O)c2cnc(Nc3ccc(N4CCN(C)CC4)cc3)nc2n1-c1cccc(C(C)(C)O)n1 + CC(C)NCC(C(=O)N1CCN(c2ncnc3c2C(C)CC3O)CC1)c1ccc(Cl)cc1
< 31.6 nM: IC50 [5]
active: viability, T/C [35] 5.72%
129 nM: IC50 [3]
280 nM: IC50 [1]
inactive: viability, T/C [6] 103% | viability, T/C [7] 74.2% | viability, T/C [8] 49.4% | viability, T/C [9] 26.9% | viability, T/C [10] 20.5% | viability, T/C [11] 19.2% | viability, T/C [12] 74.1% | viability, T/C [13] 62.9% | viability, T/C [14] 44.3% | viability, T/C [15] 27.6% | viability, T/C [16] 22.8% | viability, T/C [17] 16.7% | viability, T/C [18] 64.9% | viability, T/C [19] 54.7% | viability, T/C [20] 35.7% | viability, T/C [21] 25.7% | viability, T/C [22] 25.8% | viability, T/C [23] 17.6% | viability, T/C [24] 51.2% | viability, T/C [25] 44.4% | viability, T/C [26] 29.1% | viability, T/C [27] 23.7% | viability, T/C [28] 20.5% | viability, T/C [29] 11.9% | viability, T/C [30] 49.2% | viability, T/C [31] 37.2% | viability, T/C [32] 22.6% | viability, T/C [33] 21% | viability, T/C [34] 16.3%
221 nM: IC50 [2]
39.4 nM: IC50 [4]

Cc1nc(NC(=O)N2CCCC2C(N)=O)sc1-c1ccnc(C(C)(C)C(F)(F)F)c1 (configuration not stated) + CC(C)NCC(C(=O)N1CCN(c2ncnc3c2C(C)CC3O)CC1)c1ccc(Cl)cc1
1600 nM: IC50 [1]
active: viability, T/C [23] 8.93% | viability, T/C [35] 1.81%
491 nM: IC50 [3]
101 nM: IC50 [4]
inactive: viability, T/C [6] 96.8% | viability, T/C [7] 87.8% | viability, T/C [8] 70.8% | viability, T/C [9] 57.4% | viability, T/C [10] 42.6% | viability, T/C [11] 11.7% | viability, T/C [12] 80.1% | viability, T/C [13] 71.3% | viability, T/C [14] 57.1% | viability, T/C [15] 48.7% | viability, T/C [16] 41% | viability, T/C [17] 13.9% | viability, T/C [18] 61.8% | viability, T/C [19] 61.4% | viability, T/C [20] 53.9% | viability, T/C [21] 42.3% | viability, T/C [22] 30.6% | viability, T/C [24] 53.6% | viability, T/C [25] 51% | viability, T/C [26] 44.1% | viability, T/C [27] 35% | viability, T/C [28] 32.5% | viability, T/C [29] 9.58% | viability, T/C [30] 45.3% | viability, T/C [31] 42.1% | viability, T/C [32] 39.2% | viability, T/C [33] 28.8% | viability, T/C [34] 21.8%
977 nM: IC50 [2]
< 31.6 nM: IC50 [5]

CC(=O)c1c(C)c2cnc(Nc3ccc(N4CCNCC4)cn3)nc2n(C2CCCC2)c1=O
inactive: viability, T/C (compound 0.000949 µM) 105% and 108% | viability, T/C (compound 0.003 µM) 90.8% and 99.7% | viability, T/C (compound 0.00949 µM) 92.8% and 87.4% | viability, T/C (compound 0.03 µM) 82.7% and 87.7% | viability, T/C (compound 0.0949 µM) 73.4% and 73.1% | viability, T/C (compound 0.3 µM) 63.6% and 72.5%
> 300 nM: IC50 (curve of compound)

CC(C)n1nc(-c2ccc3oc(N)nc3c2)c2c(N)ncnc21 + CC(C)NCC(C(=O)N1CCN(c2ncnc3c2C(C)CC3O)CC1)c1ccc(Cl)cc1
3.52 nM: IC50 [2]
5.88 nM: IC50 [1]
active: viability, T/C [31] 8.97%
< 0.316 nM: IC50 [4] | IC50 [5]
inactive: viability, T/C (second compound 0.1 µM, first compound 0.000316 µM) 94.8% | viability, T/C (second compound 0.1 µM, first compound 0.001 µM) 86.6% | viability, T/C (second compound 0.1 µM, first compound 0.00316 µM) 63.7% | viability, T/C (second compound 0.1 µM, first compound 0.01 µM) 38.6% | viability, T/C [6] 19.9% | viability, T/C [7] 15.5% | viability, T/C (second compound 0.316 µM, first compound 0.000316 µM) 79.2% | viability, T/C (second compound 0.316 µM, first compound 0.001 µM) 72.4% | viability, T/C (second compound 0.316 µM, first compound 0.00316 µM) 50.8% | viability, T/C (second compound 0.316 µM, first compound 0.01 µM) 30.7% | viability, T/C [12] 14.2% | viability, T/C [13] 11.8% | viability, T/C (second compound 1 µM, first compound 0.000316 µM) 61.7% | viability, T/C (second compound 1 µM, first compound 0.001 µM) 55.3% | viability, T/C (second compound 1 µM, first compound 0.00316 µM) 37.2% | viability, T/C (second compound 1 µM, first compound 0.01 µM) 20.7% | viability, T/C [18] 14% | viability, T/C [19] 12.2% | viability, T/C (second compound 3.16 µM, first compound 0.000316 µM) 47.4% | viability, T/C (second compound 3.16 µM, first compound 0.001 µM) 41.4% | viability, T/C (second compound 3.16 µM, first compound 0.00316 µM) 28.4% | viability, T/C (second compound 3.16 µM, first compound 0.01 µM) 17.3% | viability, T/C [24] 12.2% | viability, T/C [25] 10.4% | viability, T/C (second compound 10 µM, first compound 0.000316 µM) 48.1% | viability, T/C (second compound 10 µM, first compound 0.001 µM) 35.9% | viability, T/C (second compound 10 µM, first compound 0.00316 µM) 25.4% | viability, T/C (second compound 10 µM, first compound 0.01 µM) 12% | viability, T/C [30] 11.4%
1.38 nM: IC50 [3]

Reference: PubChem BioAssay AID2060331 (Molecular Pharmacology Branch, DTP, NCI, 2025)
